{"source": "patent US7642251B2", "about": "“Compounds for the treatment of hepatitis C” (Bristol-Myers Squibb Company, priority 2007, dated 2010)", "key": {"[1]": {"target": "T1, HCV NS5B (Hepatitis C virus genotype 1b, UniProt Q9WMX2)", "T1 construct": "The cDNA encoding the NS5B protein of HCV, genotype 1b; made in house; host or cells: E. coli BL21(DE3)", "T1 sequence (Q9WMX2 2420-2992)": "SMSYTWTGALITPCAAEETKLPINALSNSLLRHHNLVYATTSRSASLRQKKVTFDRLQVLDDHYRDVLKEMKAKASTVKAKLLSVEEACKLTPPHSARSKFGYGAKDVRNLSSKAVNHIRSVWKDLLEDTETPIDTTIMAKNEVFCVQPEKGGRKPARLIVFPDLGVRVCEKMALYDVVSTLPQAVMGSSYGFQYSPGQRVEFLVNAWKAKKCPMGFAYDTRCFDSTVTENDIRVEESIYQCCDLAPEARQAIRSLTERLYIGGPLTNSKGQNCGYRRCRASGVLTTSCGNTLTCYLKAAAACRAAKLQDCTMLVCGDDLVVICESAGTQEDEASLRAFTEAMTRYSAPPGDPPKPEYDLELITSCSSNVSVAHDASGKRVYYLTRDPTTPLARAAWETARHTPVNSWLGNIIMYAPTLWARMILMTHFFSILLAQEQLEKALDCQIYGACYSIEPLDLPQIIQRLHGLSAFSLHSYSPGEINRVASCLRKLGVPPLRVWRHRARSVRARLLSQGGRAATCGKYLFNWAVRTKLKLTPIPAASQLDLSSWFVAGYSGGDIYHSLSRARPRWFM", "test": "Modified HCV NS5B RdRp enzyme assay (preincubation protocol)", "assay_type": "biochemical", "settings": "preincubation protocol; read-out: IC50", "experimental": "HCV NS5B RdRp cloning, expression, and purification. The cDNA encoding the NS5B protein of HCV, genotype 1b, was cloned into the pET21a expression vector. The protein was expressed with an 18 amino acid C-terminal truncation to enhance the solubility. The E. coli competent cell line BL21(DE3) was used for expression of the protein. Cultures were grown at 37° C. for ˜4 hours until the cultures reached an optical density of 2.0 at 600 nm. The cultures were cooled to 20° C. and induced with 1 mM IPTG. Fresh ampicillin was added to a final concentration of 50 μg/ml and the cells were grown overnight at 20° C.\nCell pellets (3 L) were lysed for purification to yield 15-24 mgs of purified NS5B. The lysis buffer consisted of 20 mM Tris-HCl, pH 7.4, 500 mM NaCl, 0.5% triton X-100, 1 mM DTT, 1 mM EDTA, 20% glycerol, 0.5 mg/ml lysozyme, 10 mM MgCl2, 15 ug/ml deoxyribonuclease I, and Complete™ protease inhibitor tablets (Roche). After addition of the lysis buffer, frozen cell pellets were resuspended using a tissue homogenizer. To reduce the viscosity of the sample, aliquots of the lysate were sonicated on ice using a microtip attached to a Branson sonicator. The sonicated lysate was centrifuged at 100,000×g for 1 hr at 4° C. and filtered through a 0.2 μm filter unit (Corning).\nThe protein was purified using three sequential chromatography steps: Heparin sepharose CL-6B, polyU sepharose 4B, and Hitrap SP sepharose (Pharmacia). The chromatography buffers were identical to the lysis buffer but contained no lysozyme, deoxyribonuclease I, MgCl2 or protease inhibitor and the NaCl concentration of the buffer was adjusted according to the requirements for charging the protein onto the column. Each column was eluted with a NaCl gradient which varied in length from 5-50 column volumes depending on the column type. After the final chromatography step, the resulting purity of the enzyme is >90% based on SDS-PAGE analysis. The enzyme was aliquoted and stored at −80° C.\nStandard HCV NS5B RdRp enzyme assay. HCV RdRp genotype 1b assays were run in a final volume of 60 μl in 96 well plates (Costar 3912). The assay buffer is composed of 20 mM Hepes, pH 7.5, 2.5 mM KCl, 2.5 mM MgCl2, 1 mM DTT, 1.6 U RNAse inhibitor (Promega N2515), 0.1 mg/ml BSA (Promega R3961), and 2% glycerol. All compounds were serially diluted (3-fold) in DMSO and diluted further in water such that the final concentration of DMSO in the assay was 2%. HCV RdRp genotype 1b enzyme was used at a final concentration of 28 nM. A polyA template was used at 6 nM, and a biotinylated oligo-dT12 primer was used at 180 nM final concentration. Template was obtained commercially (Amersham 27-4110). Biotinylated primer was prepared by Sigma Genosys. 3H-UTP was used at 0.6 μCi (0.29 μM total UTP). Reactions were initiated by the addition of enzyme, incubated at 30° C. for 60 min, and stopped by adding 25 μl of 50 mM EDTA containing SPA beads (4 μg/μl, Amersham RPNQ 0007). Plates were read on a Packard Top Count NXT after >1 hr incubation at room temperature.\nModified HCV NS5B RdRp enzyme assay. A modified enzyme assay was performed essentially as described for the standard enzyme assay except for the following: The biotinylated oligo dT12 primer was precaptured on streptavidin-coated SPA beads by mixing primer and beads in assay buffer and incubating at room temperature for one hour. Unbound primer was removed after centrifugation. The primer-bound beads were resuspended in 20 mM Hepes buffer, pH 7.5 and used in the assay at final concentrations of 20 nM primer and 0.67 μg/μl beads. Order of addition in the assay: enzyme (14 nM) was added to diluted compound followed by the addition of a mixture of template (0.2 nM), 3H-UTP (0.6 μCi, 0.29 μM), and primer-bound beads, to initiate the reaction; concentrations given are final. Reactions were allowed to proceed for 4 hours at 30° C.\nIC50 values for compounds were determined using seven different [I]. […]"}, "[2]": {"test_system": "HCV replicon cells", "test": "HCV replicon FRET assay", "assay_type": "cell-based", "settings": "Hepatitis C virus; FRET assay; read-out: EC50", "source_text": "FRET Assay Preparation. To perform the HCV FRET screening assay, 96-well cell culture plates were used. The FRET peptide (Anaspec, Inc.) (Taliani et al., Anal. Biochem. 1996, 240, 60-67) contains a fluorescence donor, EDANS, near one end of the peptide and an acceptor, DABCYL, near the other end. The fluorescence of the peptide is quenched by […] resonance energy transfer (RET) between the donor and the acceptor, but as the NS3 protease cleaves the peptide the products are released from RET quenching and the fluorescence of the donor becomes apparent. The assay reagent was made as follows: 5× cell Luciferase cell culture lysis reagent from Promega (#E153A) diluted to 1× with dH2O, NaCl added to 150 mM final, the FRET peptide diluted to 20 μM final from a 2 mM stock.\nTo prepare plates, HCV replicon cells, with or without a Renilla luciferase reporter gene, were trypsinized and placed into each well of a 96-well plate with titrated test compounds added in columns 3 through 12; columns 1 and 2 contained a control compound (HCV protease inhibitor), and the bottom row contained cells without compound. The plates were then placed in a CO2 incubator at 37° C.\nAssays. Subsequent to addition of the test compounds described above (FRET Assay Preparation), at various times the plate was removed and Alamar blue solution (Trek Diagnostics, #00-100) was added per well as a measure of cellular toxicity. After reading in a Cytoflour 4000 instrument (PE Biosystems), plates were rinsed with PBS and then used for FRET assay by the addition of 30 ul of the FRET peptide assay reagent described above (FRET Assay Preparation) per well. The plate was then placed into the Cytoflour 4000 instrument which had been set to 340 excite/490 emission, automatic mode for 20 cycles and the plate read in a kinetic mode. Typically, the signal to noise using an endpoint analysis after the reads was at least three-fold. Alternatively, after Alamar blue reading, plates were rinsed with PBS, 50 ul of DMEM (high glucose) without phenol red was added and plates were then used for luciferase assay using the Promega Dual-Glo Luciferase Assay System.\nCompound analysis was determined by quantification of the relative HCV replicon inhibition and the relative cytotoxicity values. To calculate cytoxicity values, the average Alamar Blue fluorescence signals from the control wells were set as 100% non-toxic. The individual signals in each of the compound test wells were then divided by the average control signal and multiplied by 100% to determine […]. To calculate the HCV replicon inhibition values, an average background value was obtained from the two wells containing the highest amount of HCV protease inhibitor at the end of the assay period. These numbers were similar to those obtained from naïve Huh-7 cells.\nThe background numbers were then subtracted from the average signal obtained from the control wells and this number was used as 100% activity. The individual signals in each of the compound test wells were then divided by the averaged control values after background subtraction and multiplied by 100% to determine percent activity. EC50 values for a protease inhibitor titration were calculated as the concentration which caused a 50% reduction in FRET or luciferase activity. The two numbers generated for the compound plate, percent cytoxicity and percent activity were used to determine compounds of interest for further analysis."}}, "data": [{"smiles": "COc1ccc2c(c1)C=C(c1ccc3sc(C)nc3c1)Cn1c-2c(C2CCCCC2)c2ccc(C(=O)O)cc21", "values": [{"measurement": "IC50", "setting": "[1]", "result": "4.58 to 500", "unit": "nM"}, {"measurement": "EC50", "setting": "[2]", "result": "> 500", "unit": "nM"}]}, {"smiles": "COc1ccc2c(c1)C=C(c1cccc(OCCN3CCOCC3)c1)Cn1c-2c(C2CCCCC2)c2ccc(C(=O)O)cc21", "values": [{"measurement": "IC50", "setting": "[1]", "result": "4.58 to 500", "unit": "nM"}, {"measurement": "EC50", "setting": "[2]", "result": "> 500", "unit": "nM"}]}, {"smiles": "COc1ccc2c(c1)CC(c1cccc(N3CCOCC3)n1)Cn1c-2c(C2CCCCC2)c2ccc(C(=O)NS(=O)(=O)N(C)C)cc21", "note": "(centres unmarked)", "values": [{"measurement": "IC50", "setting": "[1]", "result": "4.58 to 500", "unit": "nM"}, {"measurement": "EC50", "setting": "[2]", "result": "4.58 to 500", "unit": "nM"}]}, {"smiles": "COc1ccc2c(c1)C=C(c1ccccc1-c1noc(C)n1)Cn1c-2c(C2CCCCC2)c2ccc(C(=O)NS(=O)(=O)C(C)C)cc21", "values": [{"measurement": "IC50", "setting": "[1]", "result": "4.58 to 500", "unit": "nM"}, {"measurement": "EC50", "setting": "[2]", "result": "4.58 to 500", "unit": "nM"}]}]}
